According to patent US11578056B2, “Solid forms comprising (S)-2-(2,6-dioxopiperidin-3-yl)-4-((2-fluoro-4-((3-morpholinoazetidin-1-yl)methyl)benzyl)amino)isoindoline-1,3-dione and salts thereof, and compositions comprising and methods of using the same” (Celgene Corporation, priority 2019, dated 2023):

How the values were obtained:
Assay type in all cases: cell-based
CI cell line = assay: Hematological cell line viability/apoptosis flow cytometry assay; conditions: CI (CLL), 120 h
Description: (§1) Cell Proliferation and Viability Assay Using Hematological Cell Lines: The following exemplary anti-proliferative assay uses exemplary hematological cell lines in the following. The in vitro growth inhibitory activity of Compound 1 described herein was evaluated using a 384-well flow cytometry assay.
(§2) The cell lines were plated in 384-well flat bottom plates and assessed with increasing concentrations of compound ranging from 0.00015 to 10 μM or dimethyl sulfoxide (DMSO) control. The final concentration of DMSO was 0.1% (v/v). Following the addition of Compound 1 or DMSO and incubation for 120 hours, cell number and cell death were analyzed by flow cytometry (Attune®, Thermo Fisher) using Annexin V and the live-cell impermeant DNA dye, DRAQ7. Phosphatidylserine translocates from the inner layer to the outer layer of the cell membrane early in apoptosis and Annexin V binds to the exposed phosphatidylserine found on the surface of an apoptotic cell. The vital dye DRAQ7 is excluded by intact live cells and only stains cells that have died as a result of apoptosis or necrosis.
(§3) Flow cytometry data analysis was then performed using the Flow Jo_v10 software to determine the number of viable cells (Annexin V and DRAQ7 double negative staining cells) and percentage of apoptotic cells (Annexin V positive cells) for each condition. The live cell count for every concentration was normalized to the DMSO control (considered as 100%) to calculate the percentage of viable cells remaining after treatment and graphed using GraphPad Prism 7.03. The IC50 (50% inhibitory concentration) and Emax (maximum efficacy achieved) values were then calculated by performing nonlinear regression curve fitting using log(inhibitor) vs. normalized response—variable slope analysis on GraphPad Prism 7.03. Area under the curve (AUC) was calculated by performing area under curve analysis on GraphPad Prism 7.03. Similarly, for apoptosis analysis, the percentage of apoptosis combining both “early” (Annexin V positive and DRAQ7 negative) and “late” apoptosis (Annexin V and DRAQ7 positive) cell gates relative to DMSO was graphed using GraphPad Prism 7.03. The AUC, EC50 (concentration of compound that produces half-maximal apoptosis response) and Ymax (maximal percentage of apoptosis achieved) values from apoptosis curves were calculated by performing area under curve analysis and nonlinear regression curve fitting using log(agonist) vs. normalized response—Variable slope analysis on GraphPad Prism 7.03.
(§4) Dose-response proliferation curves for the panel of hematological cell lines and non-linear curve-fit regression were used to determine IC50, AUC, and Emax for % viable cells (Emax for viability varies between 100 at low doses and 0 at high doses, which corresponds to inhibition of all viable cells), and dose-response apoptosis curves were used to determine the EC50, AUC, and Ymax for % apoptosis (Ymax for apoptosis varies from 0 at low doses and 100 at higher doses which corresponds to death of all cells). Tumor cells were exposed to serial dilutions (0.00015 to 10 μM) of Compound 1 or dimethyl sulfoxide (DMSO) control for 5 days. Viability and apoptosis for all cell lines was determined by Annexin V/7-aminoactinomycin D (7-AAD) flow cytometry.

DB cell line = assay: as above; conditions: 120 h
Description: as §1, §2, §3, §4

JJN-3 cell line = assay: as above; conditions: JJN-3 (MM, PCL), 120 h
Description: as §1, §2, §3, §4

KARPAS-422 cell line = assay: as above; conditions: KARPAS-422 (DLBCL GCB); 120 h
Description: as §1, §2, §3, §4

MDS-L cell line = assay: as above; conditions: 120 h
Description: as §1, §2, §3, §4

OCI-LY19 cell line = assay: as above; conditions: OCI-LY19 (DLBCL GCB); 120 h
Description: as §1, §2, §3, §4

SU-DHL-1 cell line = assay: as above; conditions: SU-DHL-1 (DLBCL); 120 h
Description: as §1, §2, §3, §4

SU-DHL-10 cell line = assay: as above; conditions: SU-DHL-10 (DLBCL GCB); 120 h
Description: as §1, §2, §3, §4

WILL-1 cell line = assay: as above; conditions: WILL-1 (DLBCL); 120 h
Description: as §1, §2, §3, §4

Karpas-231 cell line = assay: as above; conditions: Karpas-231 (ALL), 120 h
Description: as §1
as §2, with “The” for “The cell lines were plated in 384-well flat bottom plates and assessed with increasing concentrations of compound ranging from 0.00015 to 10 μM or dimethyl sulfoxide (DMSO) control. The”
as §3
as §4, with “Tumor cells were exposed to serial dilutions (0.00015 to 10 μM) of Compound 1 or dimethyl sulfoxide (DMSO) control for 5 days.” left out

hematological cell lines = assay: Hematological cell line viability/apoptosis flow cytometry assay, whole panel; conditions: panel of hematological cell lines, 0.00015 to 10 μM, 5 days
Description: as §1
The cell lines were plated in 384-well flat bottom plates and assessed with increasing concentrations of compound ranging from 0.00015 to 10 μM or dimethyl sulfoxide (DMSO) control. The final concentration of DMSO was 0.1% (v/v). Following the addition of Compound 1 or DMSO and incubation for 120 hours, cell number and cell death were analyzed by flow cytometry (Attune®, Thermo Fisher) using Annexin V and the live-cell impermeant DNA dye, DRAQ7. […]
Flow cytometry data analysis was then performed using the Flow Jo_v10 software to determine the number of viable cells (Annexin V and DRAQ7 double negative staining cells) and percentage of apoptotic cells (Annexin V positive cells) for each condition. […] The IC50 (50% inhibitory concentration) and Emax (maximum efficacy achieved) values were then calculated by performing nonlinear regression curve fitting using log(inhibitor) vs. normalized response—variable slope analysis on GraphPad Prism 7.03. Area under the curve (AUC) was calculated by performing area under curve analysis on GraphPad Prism 7.03. […]

[1] = Homo sapiens, read-out: % Viable Cells IC50

O=C1CC[C@H](N2C(=O)c3cccc(NCc4ccc(CN5CC(N6CCOCC6)C5)cc4F)c3C2=O)C(=O)N1 [Compound 1, (S)-2-(2,6-dioxopiperidin-3-yl)-4-((2-fluoro-4-((3-morpholinoazetidin-1-yl)methyl)benzyl)amino)isoindoline-1,3-dione]
% Viable Cells AUC (CI cell line): 603.9 | % Viable Cells Emax (CI cell line): 53.58% | Apoptosis AUC (CI cell line): 123.2 | Apoptosis Ymax (CI cell line): 13.01% | EC50 (CI cell line): 22.9 nM | IC50 (CI cell line; read-out: % Viable Cells IC50): 9700 nM | % Viable Cells AUC (DB cell line): 941.4 | % Viable Cells Emax (DB cell line): 89.46% | Apoptosis AUC (DB cell line): 80.31 | Apoptosis Ymax (DB cell line): 11.62% | IC50 (DB cell line; [1]): > 10000 nM | IC50 (JJN-3 cell line; [1]): 0.4 nM | % Viable Cells AUC (JJN-3 cell line): 278.2 | % Viable Cells Emax (JJN-3 cell line): 21.6% | Apoptosis AUC (JJN-3 cell line): 57.97 | Apoptosis Ymax (JJN-3 cell line): 26% | % Viable Cells AUC (KARPAS-422 cell line): 19.97 | % Viable Cells Emax (KARPAS-422 cell line): 0.8721% | Apoptosis AUC (KARPAS-422 cell line): 911.9 | Apoptosis Ymax (KARPAS-422 cell line): 93.99% | % Viable Cells AUC (MDS-L cell line): 182.6 | % Viable Cells Emax (MDS-L cell line): 146.7% | Apoptosis AUC (MDS-L cell line): 425.4 | Apoptosis Ymax (MDS-L cell line): 100% | EC50 (MDS-L cell line): 1560 nM | IC50 (MDS-L cell line; read-out: % Viable Cells IC50): 51.3 nM | % Viable Cells AUC (OCI-LY19 cell line): 72.49 | % Viable Cells Emax (OCI-LY19 cell line): 3.228% | Apoptosis AUC (OCI-LY19 cell line): 706.2 | Apoptosis Ymax (OCI-LY19 cell line): 80.91% | % Viable Cells AUC (SU-DHL-1 cell line): 31.14 | % Viable Cells Emax (SU-DHL-1 cell line): 2.485% | Apoptosis AUC (SU-DHL-1 cell line): 690.1 | Apoptosis Ymax (SU-DHL-1 cell line): 73.83% | % Viable Cells AUC (SU-DHL-10 cell line): 10.36 | % Viable Cells Emax (SU-DHL-10 cell line): 0.6716% | Apoptosis AUC (SU-DHL-10 cell line): 903 | Apoptosis Ymax (SU-DHL-10 cell line): 92.27% | % Viable Cells AUC (WILL-1 cell line): 233.7 | % Viable Cells Emax (WILL-1 cell line): 4.216% | Apoptosis AUC (WILL-1 cell line): 549.4 | Apoptosis Ymax (WILL-1 cell line): 79.51% | % Viable Cells AUC (Karpas-231 cell line): 449.4 | % Viable Cells Emax (Karpas-231 cell line): 0% | Apoptosis AUC (Karpas-231 cell line): 5.720 | Apoptosis Ymax (Karpas-231 cell line): 5.00% | EC50 (Karpas-231 cell line): 896000 nM | IC50 (Karpas-231 cell line; read-out: % Viable Cells IC50): 484 nM | antiproliferative activity and/or apoptotic effects (hematological cell lines): antiproliferative activity and/or apoptotic effects in almost all hematological cell lines tested
